Measurements published in US5580871A, “4-Heteroaryl- 1,4-dihydropyridine compounds with calcium agonist and alpha1 -antagonist activity” (The Dupont Merck Pharmaceutical Company, priority 1995, dated 1996).

Experiments:
[1] = test system: influx of calcium ions into cells; settings: background, cited from earlier work
guinea pig left atria = assay: Positive inotropic effect in guinea pig left atria; settings: Cavia porcellus; for EC50: concentration that increases developed tension (DT) by 50% above the control DT, left atria paced at 2 Hz, 37° C.; for Emax: ratio of the maximum effect of the test compound to that of Bay K8644, read-out: Intrinsic Activity
Description: Guinea pigs are killed by cervical dislocation. The left atria are removed and mounted at 1 gm resting tension in tissue baths containing oxygenated Krebs bicarbonate solution which is kept at 37° C. The left atria are electrically paced at 2 Hz with square wave pulses of 1 msec duration. The voltage is set at 1.5×threshold level.
After a one hour equilibration period, control values for developed tension (DT, gm) are recorded. Test compounds are then added to the baths, in a cumulative manner to a maximum concentration of 10^-4, to obtain a concentration-response curve. Treatment values of DT are obtained after the drug effect has reached a plateau and the exposure time for each concentration is 5-8 minutes. Percent change of the treatment value from the control value is calculated at each concentration of the test compound.

alpha1-adrenoceptor = assay: [3H]-Prazosin binding assay (affinity for alpha1-adrenoceptors); settings: partially purified rat brain membranes; 0.2 nM [3H]-prazosin, 60 min, 25° C.
Description: The [^3 H]-prazosin binding assay was carried out according to the method described by Timmermans, P. B. M. W. M., Schoop, A. M. C., and Van Zwieten, P. A., Biochem. Pharmacol., 31, 899-905, (1982). The reaction mixture contained partially purified rat brain membranes (source of alpha1 -adrenoceptors), 0.2 nM [^3 H]-prazosin with or without potential displacer in Tris buffer. The mixture was incubated for 60 minutes at 25° C. and subsequently terminated by rapid filtration through glass fiber-filter. Receptor-bound [^3 H]-prazosin trapped in the filter was quantitated by scintillation counting. The inhibitory concentration (IC50) of potential displacer which gives 50% displacement of the total specifically bound [^3 H]-prazosin is presented as a measure of the affinity of such compound for the alpha1 -adrenoceptor.

Ca^2+ channel = target: T1, Ca^2+ channel (Rattus norvegicus, UniProt P22002); assay: [3H]-Nitrendipine binding assay (affinity for calcium channels); settings: rat cardiac microsomes; 0.5 nM [3H]-nitrendipine, 60 min, 25° C.
T1 construct: rat cardiac microsomes (source of Ca^2+ channels); from tissue; host or cells: rat cardiac microsomes
T1 sequence (P22002 whole entry, other chains not shown): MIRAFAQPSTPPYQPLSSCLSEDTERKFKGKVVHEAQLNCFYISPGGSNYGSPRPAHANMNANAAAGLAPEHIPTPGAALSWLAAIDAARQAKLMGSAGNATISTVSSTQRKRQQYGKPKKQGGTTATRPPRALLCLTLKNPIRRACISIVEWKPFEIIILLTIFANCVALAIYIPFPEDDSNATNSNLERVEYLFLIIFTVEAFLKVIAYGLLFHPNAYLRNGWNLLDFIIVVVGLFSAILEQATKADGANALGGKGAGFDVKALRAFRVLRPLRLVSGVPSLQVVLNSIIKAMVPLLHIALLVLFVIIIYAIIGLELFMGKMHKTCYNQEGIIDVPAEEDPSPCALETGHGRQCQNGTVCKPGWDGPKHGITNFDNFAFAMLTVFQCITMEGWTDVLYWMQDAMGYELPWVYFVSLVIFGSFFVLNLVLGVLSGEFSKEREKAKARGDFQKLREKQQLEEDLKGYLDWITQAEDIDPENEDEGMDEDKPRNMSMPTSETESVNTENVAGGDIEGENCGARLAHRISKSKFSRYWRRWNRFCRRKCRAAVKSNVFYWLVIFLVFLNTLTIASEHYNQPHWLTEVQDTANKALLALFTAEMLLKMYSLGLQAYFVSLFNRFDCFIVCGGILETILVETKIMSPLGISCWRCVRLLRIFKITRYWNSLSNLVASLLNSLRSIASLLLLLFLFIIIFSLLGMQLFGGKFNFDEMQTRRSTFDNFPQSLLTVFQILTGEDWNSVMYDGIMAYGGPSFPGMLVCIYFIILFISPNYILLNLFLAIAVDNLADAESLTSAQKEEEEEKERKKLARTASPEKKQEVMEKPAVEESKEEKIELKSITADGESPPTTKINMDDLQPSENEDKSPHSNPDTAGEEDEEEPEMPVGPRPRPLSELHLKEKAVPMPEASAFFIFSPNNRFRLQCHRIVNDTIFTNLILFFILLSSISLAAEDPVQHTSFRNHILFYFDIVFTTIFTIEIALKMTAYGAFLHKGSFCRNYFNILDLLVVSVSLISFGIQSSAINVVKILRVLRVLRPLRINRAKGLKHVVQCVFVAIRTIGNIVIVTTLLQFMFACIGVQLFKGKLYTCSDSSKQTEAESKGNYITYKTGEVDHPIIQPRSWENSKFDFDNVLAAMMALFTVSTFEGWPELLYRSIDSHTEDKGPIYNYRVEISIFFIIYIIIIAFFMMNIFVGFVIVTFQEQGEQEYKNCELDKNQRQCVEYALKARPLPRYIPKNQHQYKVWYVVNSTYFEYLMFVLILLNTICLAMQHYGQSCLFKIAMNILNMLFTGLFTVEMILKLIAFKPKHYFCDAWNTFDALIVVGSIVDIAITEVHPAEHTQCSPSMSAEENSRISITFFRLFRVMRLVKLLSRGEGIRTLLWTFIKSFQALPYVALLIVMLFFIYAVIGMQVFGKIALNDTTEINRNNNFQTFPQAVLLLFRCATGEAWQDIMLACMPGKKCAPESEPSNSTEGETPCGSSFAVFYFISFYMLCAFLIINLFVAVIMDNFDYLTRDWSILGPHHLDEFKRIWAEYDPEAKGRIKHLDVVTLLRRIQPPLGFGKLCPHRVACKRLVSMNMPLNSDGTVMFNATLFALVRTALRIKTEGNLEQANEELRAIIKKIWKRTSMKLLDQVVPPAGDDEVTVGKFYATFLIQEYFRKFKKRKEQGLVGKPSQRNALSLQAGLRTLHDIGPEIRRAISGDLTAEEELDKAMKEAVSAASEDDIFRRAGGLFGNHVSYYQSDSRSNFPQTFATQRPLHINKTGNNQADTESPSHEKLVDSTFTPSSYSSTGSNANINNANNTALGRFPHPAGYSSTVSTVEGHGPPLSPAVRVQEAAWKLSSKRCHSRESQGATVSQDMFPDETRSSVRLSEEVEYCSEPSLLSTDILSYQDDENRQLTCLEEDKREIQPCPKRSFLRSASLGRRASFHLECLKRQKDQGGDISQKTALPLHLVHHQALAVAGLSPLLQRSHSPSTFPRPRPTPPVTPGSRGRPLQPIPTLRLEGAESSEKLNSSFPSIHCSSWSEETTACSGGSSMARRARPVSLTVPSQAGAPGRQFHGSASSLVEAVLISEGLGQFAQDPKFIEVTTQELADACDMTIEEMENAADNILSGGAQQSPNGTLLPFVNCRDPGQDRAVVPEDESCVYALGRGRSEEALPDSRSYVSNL
T1 sequence (P54290 25-944 partner limits assumed, other chains not shown): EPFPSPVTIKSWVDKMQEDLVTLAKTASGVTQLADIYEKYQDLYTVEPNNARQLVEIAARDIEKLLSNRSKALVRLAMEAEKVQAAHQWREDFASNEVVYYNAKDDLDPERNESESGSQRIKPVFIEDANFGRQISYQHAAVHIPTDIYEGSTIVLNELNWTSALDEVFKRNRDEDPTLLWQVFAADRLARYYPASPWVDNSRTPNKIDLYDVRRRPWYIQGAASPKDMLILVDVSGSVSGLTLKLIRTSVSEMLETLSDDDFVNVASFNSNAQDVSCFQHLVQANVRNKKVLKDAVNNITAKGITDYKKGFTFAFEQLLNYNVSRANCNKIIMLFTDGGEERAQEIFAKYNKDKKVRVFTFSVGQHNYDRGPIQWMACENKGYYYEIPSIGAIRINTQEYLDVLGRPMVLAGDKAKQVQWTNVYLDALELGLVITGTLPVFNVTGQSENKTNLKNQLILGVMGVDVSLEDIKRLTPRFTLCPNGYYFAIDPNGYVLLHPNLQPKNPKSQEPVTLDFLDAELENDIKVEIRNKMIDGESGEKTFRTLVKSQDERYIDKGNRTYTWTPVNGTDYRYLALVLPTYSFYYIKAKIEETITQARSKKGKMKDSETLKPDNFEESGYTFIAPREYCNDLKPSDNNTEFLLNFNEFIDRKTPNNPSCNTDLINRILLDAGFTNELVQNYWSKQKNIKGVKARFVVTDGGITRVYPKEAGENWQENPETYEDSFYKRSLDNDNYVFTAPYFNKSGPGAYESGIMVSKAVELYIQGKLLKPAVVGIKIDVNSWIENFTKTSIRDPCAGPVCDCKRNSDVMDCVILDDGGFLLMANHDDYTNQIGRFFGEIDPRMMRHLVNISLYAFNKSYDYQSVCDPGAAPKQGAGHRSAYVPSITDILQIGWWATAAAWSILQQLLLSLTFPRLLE
T1 sequence (P54290 945-1091 partner limits assumed, other chains not shown): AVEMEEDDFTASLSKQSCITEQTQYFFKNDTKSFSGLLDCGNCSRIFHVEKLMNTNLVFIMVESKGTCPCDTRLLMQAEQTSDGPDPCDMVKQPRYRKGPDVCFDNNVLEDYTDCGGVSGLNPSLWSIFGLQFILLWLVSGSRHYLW
Description: [^3 H]-Nitrendipine binding assay was carried out according to the method described by G. T. Bolger, et al., Biochem. Biophys. Res. Comm., 104, 1604-1609, (1982). The reaction mixture contained rat cardiac microsomes (source of Ca^2+ channels), 0.5 nM [^3 H]-nitrendipine with or without potential displacer in Tris buffer. The mixture was incubated for 60 minutes at 25° C. and subsequently terminated by rapid filtration through a glass fiber-filter. Membrane-bound [^3 H]-nitrendipine trapped in the filter was quantitated by scintillation counting. The inhibitory concentration (IC50) of potential displacer which gives 50% displacement of the total specifically bound [^3 H]-nitrendipine is presented as a measure of the affinity of such compound for the Ca^2+ channel.

| Structure (SMILES) | calcium influx, inotropic and vascular effects ([1]; literature) | potency as a calcium agonist relative to CGP 28392 ([1]; literature) | coronary vasoconstriction ([1]; not useful as a cardiotonic) | EC50 (guinea pig left atria) | Emax (guinea pig left atria) | IC50 (alpha1-adrenoceptor) | IC50 (Ca^2+ channel) |
| --- | --- | --- | --- | --- | --- | --- | --- |
| COC(=O)C1=C(C)NC(C)=C([N+](=O)[O-])C1c1ccccc1C(F)(F)F (centres unmarked) [Bay K8644] | promote an influx of calcium ions, into cells thereby producing positive inotropic and vasoconstrictor effects | more than ten times as potent as CGP 28392 as a calcium agonist | coronary vasoconstricting properties | 150 nM | 100% | – | – |
| COc1ccccc1N1CCN(CCOC(=O)C2=C(C)NC(C)=C([N+](=O)[O-])C2c2cccn2C)CC1 (centres unmarked) [Example 77, 1,4-Dihydro-2,6-dimethyl-4-(1-methyl-1H-pyrrol-2-yl)-5-nitro-3-pyridinecarboxylic acid, {2-[4-(2-methoxyphenyl)-1-piperazinyl]ethyl} ester] | – | – | – | 230 nM | 240% | 110 nM | 1100 nM |
| COc1ccccc1N1CCN(CCOC(=O)C2=C(C)NC(C)=C([N+](=O)[O-])C2c2cccnc2)CC1 (centres unmarked) [Example 61] | – | – | – | 1500 nM | 164% | 25 nM | 1300 nM |
| CC1=C(C(=O)OCCCCN2CCN(c3ncccn3)CC2)C(c2ccoc2)C([N+](=O)[O-])=C(C)N1 (centres unmarked) [Example 68, 4-(3-Furanyl)-1,4-dihydro-2,6-dimethyl-5-nitro-3-pyridinecarboxylic acid, {4-[4-(2-pyrimidinyl)-1-piperazinyl]butyl} ester] | – | – | – | 3700 nM | 147% | 850 nM | 2700 nM |
| COC(=O)C1=C(C)NC(C)=C([N+](=O)[O-])C1c1ccccc1[S+]([O-])CCCCN1CCN(c2ccccc2OC)CC1 (centres unmarked) [Example 4] | – | – | – | – | 43% | 20 nM | 890 nM |
| COc1ccccc1N1CCN(CCOC(=O)C2=C(C)NC(C)=C([N+](=O)[O-])C2c2ccoc2)CC1 (centres unmarked) [Example 55, 4-(3-Furanyl)-1,4-dihydro-2,6-dimethyl-5-nitro-3-pyridinecarboxylic acid, {2-[4-(2-methoxyphenyl)-1-piperazinyl]ethyl} ester] | – | – | – | 1000 nM | 169% | 100 nM | 5100 nM |
| COc1ccccc1N1CCN(CCCCOC(=O)C2=C(C)NC(C)=C([N+](=O)[O-])C2c2cccs2)CC1 (centres unmarked) [Example 63] | – | – | – | 12000 nM | 75% | 60 nM | 2200 nM |
| COc1ccccc1N1CCN(CCOC(=O)C2=C(C)NC(C)=C([N+](=O)[O-])C2c2ccco2)CC1 (centres unmarked) [Example 59] | – | – | – | 2700 nM | 98% | 100 nM | 1500 nM |
| COC(=O)C1=C(C)NC(C)=C([N+](=O)[O-])C1c1ccccc1S(=O)(=O)CCCCN1CCN(c2ccccc2OC)CC1 (centres unmarked) [Example 3] | – | – | – | 1000 nM | 89% | 63 nM | 240 nM |
| COc1ccccc1N1CCN(CCCCOC(=O)C2=C(C)NC(C)=C([N+](=O)[O-])C2c2ccoc2)CC1 (centres unmarked) [Example 67] | – | – | – | 24000 nM | 86% | 63 nM | 3500 nM |
| COC(=O)C1=C(C)NC(C)=C([N+](=O)[O-])C1c1ccccc1OCCCCCN1CCC(c2ccccc2)CC1 (centres unmarked) [Example 6] | – | – | – | 2000 nM | 207% | 900 nM | 360 nM |
